Patent US10974036B2, “Implantable device for long-term delivery of drugs” (Delpor, Inc., priority 2009, dated 2021)
In brackets after ≈: the same amount, converted by molar mass. Several values for one entry are separate records, joined by “and”; a condition that tells them apart may be missing. Equal values may be shown once. Read-outs that look alike come from different tables or passages of the source.

Tests used:
[1] = cited from earlier work
in vivo = conditions: human, plasma, iv
[2] = cited from earlier work; remark: listed apart in the source
[3] = In vitro release of risperidone, Franz-type diffusion cells with different porous partitions (Example 1); assay type: physicochemical; conditions: after 3-4 day equilibration phase, suspension with PLGA, room temperature
Text: As described in Example 1, typical Franz-type diffusion cells were fitted with a porous partition separating a donor chamber from a receptor chamber. The partitions were selected to span a wide range of pore sizes (i.e., molecular weight cut-off or “MWCO”, values or nominal pose diameter) The porous partitions selected for use in this study had molecular weight cut-off values of 100,000 Daltons and 3,000 Daltons. In addition, a porous partition in the form of a […] polyvinyldenefluoride membrane filter (Durapore®) was used.
Sustained, substantially zero-order release rate was obtained, as best seen in FIG. 7B.
Typical Franz-type diffusion cells were fitted with porous partitions separating a donor chamber from a receptor chamber. The porous partitions were membranes with pore sizes of 3,000 Daltons molecular weight cut-off, 100,000 Daltons molecular weight cut-off and a 0.45 micron polyvinyldenefluoride membrane filter (Durapore®). […] The cells were maintained at room temperature. […] Buffer was replaced each day.

[4] = 100 mg risperidone, PBS pH 7.4, 37° C.
Method: Two groups of drug delivery devices were assembled as follows. Cylindrical titanium tubes, 4 mm in diameter and 35 mm in length, were prepared. […] The reservoirs of the devices were filled with phosphate buffered saline (PBS) at pH 7.4 under reduced pressure. Each of the devices in Group B was fitted with two regenerated cellulose membranes (5000 Daltons molecular weight cut off) at each end of the cylindrical tube by sandwiching the membrane between an o-ring and titanium frit (5 micron pores), as illustrated in FIGS. 5A-5B. The devices in Group A were identical, except the cellulose membrane was omitted, as illustrated in FIGS. 4A-4B. The devices were then placed individually in tubes containing approximately 1 mL PBS. The tubes were placed on a rotating rack (1 revolution per hour) at 37° C.
Buffer was diluted to 20-50 micrograms/mL prior to measurement to insure that the concentration was within the linear range of the UV measurement. Buffer was replaced each day.

[5] = PBS, 37° C.
Method: In yet another study, devices were prepared as described herein an tested in vitro and in vivo.
Two groups of devices (n=6) were prepared. The main body of each device consisted of a cylindrical titanium tube, definining an internal reservoir. The tubes were 35 mm in length, with an outer diameter (OD) of 4.3 mm and an inner diameter (ID) of about 3 mm (Peridot Manufacturing, Pleasanton, Calif.). Both ends of each tube were tapered (lathed) so as to accept a press cap which served to retain a porous partition, as illustrated in FIGS. 4-5. The first group of devices was fitted on one end with a titanium sintered frit having a diameter 3.5 mm, a depth 0.5 mm, and a 5 micron nominal particle retention size (Applied Porous Materials, Farmington, Conn.). The frit was secured in each tube by placing the tube horizontally in a holder, and then positioning over the open end, in sequence, the frit, an o-ring and the press cap.
A 2.5 mm stainless steel ball was placed in the reservoir to provide mixing. A second frit was sealed to the remaining open end of the reservoir using the same procedure as described above for the other end. […]
Both groups of devices were equally split, each subgroup of 3 devices destined for either in vitro or in vivo testing. In vitro release rate was determined by submerging the devices in 1 mL PBS held in screw cap cryo-vials. […]

[6] = In vivo plasma concentration after subcutaneous implantation of devices in rats (Example 5, FIG. 12B); conditions: subcutaneous device containing risperidone only, first week
Method: For in vivo experiments, rats were anesthetized and devices placed subcutaneously in the dorsum, lateral to the midline, using a trocar. Whole blood samples were obtained by tail vein venous puncture. Plasma was immediately separated from formed elements by centrifugation. […] The lower limit of quantitation was 0.10 ng/mL.

| SMILES | clearance (in vivo) [mL/min] | Half-life ([1]; in vivo) [h] | Target Steady state plasma conc ([1]; in vivo) [ng/mL] | CL(L/hr) (iv) [1] | Bioavailability oral [1] [%] | Water solubility (mg/mL) acidic pH ([2]; acidic pH) [mg/mL] | Water solubility (mg/mL) neutral pH [2] [mg/mL] | other results |
| --- | --- | --- | --- | --- | --- | --- | --- | --- |
| O=C1CCc2ccc(OCCCCN3CCN(c4cccc(Cl)c4Cl)CC3)cc2N1 [Aripiprazole, aripiprazole] | 39.6 | 3 | 100 | 2.37 L/h |  |  |  |  |
| Cc1cc2c(s1)Nc1ccccc1N=C2N1CCN(C)CC1 [Olanzapine, olanzapine] |  |  | 30 |  | 60 |  |  |  |
| Cc1nc2n(c(=O)c1CCN1CCC(c3noc4cc(F)ccc34)CC1)CCCC2O (stereo not shown) [Paliperidone, paliperidone] |  | 24 |  |  |  |  | 0.54 | Water solubility acidic pH relative to neutral pH ([2]; acidic pH): 100 x neutral |
| Cc1nc2n(c(=O)c1CCN1CCC(c3noc4cc(F)ccc34)CC1)CCCC2 [Risperidone, risperidone] |  |  | 20 |  |  |  |  | release rate of risperidone ([3]; 0.45 polyvinyldenefluoride membrane filter (Durapore)): 70 µg/day; release rate of risperidone ([3]; porous partition 3,000 Dalton molecular weight cut-off): 100 µg/day; release rate of risperidone ([3]; porous partition 100,000 Dalton molecular weight cut-off): 200 µg/day; average release rate ([4]; devices with 5 mg 50:50 PLGA and 15 mg 85:15 PLGA (Group B)): 1 to 1.2 mg/day; release rate ([4]; devices without PLGA (Group A)): less than 0.05 mg/day; in vitro release rate ([5]; devices with PLGA (15 mg 50:50 and 50 mg 85:15), maintained for 30 days): above 0.4 mg/day; in vitro release rate ([5]; devices without PLGA, throughout 30 days): less than 0.05 mg/day; release rate (5 mg 85:15 PLGA in suspension (FIG. 9)): 0.25 mg/day; release rate (10 mg 85:15 PLGA in suspension (FIG. 9)): 0.43 mg/day; release rate (15 mg 85:15 PLGA in suspension (FIG. 9)): 0.64 mg/day; plasma levels of risperidone (plus 9-hydroxyrisperidone) [6]: barely detectable |

More lines, main results first:

| clearance (in vivo) [mL/min] | SMILES | Half-life ([1]; in vivo) [h] | Target Steady state plasma conc ([1]; in vivo) [ng/mL] | CL(L/hr) (iv) [1] | Bioavailability oral [1] [%] | Water solubility (mg/mL) acidic pH ([2]; acidic pH) [mg/mL] | Water solubility (mg/mL) neutral pH [2] [mg/mL] | other results |
| --- | --- | --- | --- | --- | --- | --- | --- | --- |
| 867 | CN1CC2c3ccccc3Oc3ccc(Cl)cc3C2C1 (stereo not shown) [Asenapine, asenapine] | 24 | 2.1 | 52 L/h | < 2 | 13 | 3.0 | plasma clearance ([1]; in vivo): 52 L/h; Bioavailability sublingual ([1]; sublingual): 30%; solubility ([2]; in 0.1N HCl): 13000 µg/mL (≈ 45.5 mM); water solubility ([2]; pH 7-7.4): 3000 µg/mL (≈ 10.5 mM); water solubility ([2]; pH 7.0): 3000 µg/mL (≈ 10.5 mM) |
| 667 | O=C(CCCN1CCC(O)(c2ccc(Cl)cc2)CC1)c1ccc(F)cc1 [Haloperidol, haloperidol] | 29 | 2 | 42 L/h and 22 L/h | 65 | 4.2 | 0.025 |  |
